Measured values as given in ChEMBL document CHEMBL4507291 (2021).

Columns and labels:
[1] = biological target: Bone morphogenetic protein receptor type-2 (Homo sapiens) (UniProt Q13873)
[2] = biological target: T1, Inhibitor of nuclear factor kappa-B kinase subunit alpha (Homo sapiens) (UniProt O15111)
T1 sequence (whole entry): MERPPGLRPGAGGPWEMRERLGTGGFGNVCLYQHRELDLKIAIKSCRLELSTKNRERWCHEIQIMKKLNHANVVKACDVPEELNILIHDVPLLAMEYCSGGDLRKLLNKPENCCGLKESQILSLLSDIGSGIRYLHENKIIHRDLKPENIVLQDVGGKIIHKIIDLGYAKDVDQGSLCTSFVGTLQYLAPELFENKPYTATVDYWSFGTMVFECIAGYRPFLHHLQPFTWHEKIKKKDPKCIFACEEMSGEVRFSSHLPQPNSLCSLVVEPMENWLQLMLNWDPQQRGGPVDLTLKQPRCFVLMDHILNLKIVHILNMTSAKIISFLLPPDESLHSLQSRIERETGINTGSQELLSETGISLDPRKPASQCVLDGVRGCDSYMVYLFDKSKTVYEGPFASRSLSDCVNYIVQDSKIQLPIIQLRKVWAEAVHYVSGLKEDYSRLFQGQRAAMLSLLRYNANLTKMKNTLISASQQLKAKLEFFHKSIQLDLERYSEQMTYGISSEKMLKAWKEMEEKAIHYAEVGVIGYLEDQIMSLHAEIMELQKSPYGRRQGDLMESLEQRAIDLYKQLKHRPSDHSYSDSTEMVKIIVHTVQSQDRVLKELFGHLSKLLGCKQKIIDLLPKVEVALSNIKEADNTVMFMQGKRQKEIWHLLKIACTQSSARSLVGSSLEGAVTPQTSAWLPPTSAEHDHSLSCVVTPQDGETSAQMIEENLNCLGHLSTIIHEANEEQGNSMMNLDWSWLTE

[3] = biological target: Serine/threonine-protein kinase 32A (Homo sapiens) (UniProt Q8WU08)
Sequence of Serine/threonine-protein kinase 32A (Homo sapiens) (Q8WU08 whole entry): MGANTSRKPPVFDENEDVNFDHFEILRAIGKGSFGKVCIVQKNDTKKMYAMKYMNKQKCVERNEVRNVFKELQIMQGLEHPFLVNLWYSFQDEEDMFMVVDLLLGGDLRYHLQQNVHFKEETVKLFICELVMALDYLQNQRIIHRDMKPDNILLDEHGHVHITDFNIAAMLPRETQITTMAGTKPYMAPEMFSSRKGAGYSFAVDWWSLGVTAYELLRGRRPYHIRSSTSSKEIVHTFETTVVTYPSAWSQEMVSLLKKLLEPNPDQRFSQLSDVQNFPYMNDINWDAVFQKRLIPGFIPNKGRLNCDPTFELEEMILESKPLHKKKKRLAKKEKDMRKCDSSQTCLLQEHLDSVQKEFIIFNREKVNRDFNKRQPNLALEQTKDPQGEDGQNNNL

[4] = biological target: SRSF protein kinase 2 (Homo sapiens) (UniProt P78362)
Sequence of SRSF protein kinase 2 (Homo sapiens) (P78362 whole entry, looked up): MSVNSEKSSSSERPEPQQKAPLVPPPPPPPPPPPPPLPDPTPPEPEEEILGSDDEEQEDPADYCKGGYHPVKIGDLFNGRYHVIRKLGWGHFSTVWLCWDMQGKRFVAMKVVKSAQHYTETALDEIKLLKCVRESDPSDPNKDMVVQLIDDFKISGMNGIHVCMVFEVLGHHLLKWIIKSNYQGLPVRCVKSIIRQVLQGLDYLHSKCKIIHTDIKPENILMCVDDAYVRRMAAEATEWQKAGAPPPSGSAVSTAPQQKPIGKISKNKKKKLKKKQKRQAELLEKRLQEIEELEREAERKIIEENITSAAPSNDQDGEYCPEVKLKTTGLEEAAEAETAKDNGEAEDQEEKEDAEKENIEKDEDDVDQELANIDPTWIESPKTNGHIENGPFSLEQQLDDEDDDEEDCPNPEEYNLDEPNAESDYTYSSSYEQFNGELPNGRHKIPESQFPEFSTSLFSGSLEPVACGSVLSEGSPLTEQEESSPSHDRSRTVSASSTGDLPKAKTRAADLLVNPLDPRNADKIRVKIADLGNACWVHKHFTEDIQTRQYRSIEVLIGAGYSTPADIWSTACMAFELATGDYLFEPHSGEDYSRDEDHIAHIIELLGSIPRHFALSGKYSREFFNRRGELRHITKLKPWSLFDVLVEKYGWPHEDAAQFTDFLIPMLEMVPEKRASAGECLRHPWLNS

[5] = biological target: T2, Tyrosine-protein kinase Tec (Homo sapiens) (UniProt P42680)
T2 sequence (whole entry): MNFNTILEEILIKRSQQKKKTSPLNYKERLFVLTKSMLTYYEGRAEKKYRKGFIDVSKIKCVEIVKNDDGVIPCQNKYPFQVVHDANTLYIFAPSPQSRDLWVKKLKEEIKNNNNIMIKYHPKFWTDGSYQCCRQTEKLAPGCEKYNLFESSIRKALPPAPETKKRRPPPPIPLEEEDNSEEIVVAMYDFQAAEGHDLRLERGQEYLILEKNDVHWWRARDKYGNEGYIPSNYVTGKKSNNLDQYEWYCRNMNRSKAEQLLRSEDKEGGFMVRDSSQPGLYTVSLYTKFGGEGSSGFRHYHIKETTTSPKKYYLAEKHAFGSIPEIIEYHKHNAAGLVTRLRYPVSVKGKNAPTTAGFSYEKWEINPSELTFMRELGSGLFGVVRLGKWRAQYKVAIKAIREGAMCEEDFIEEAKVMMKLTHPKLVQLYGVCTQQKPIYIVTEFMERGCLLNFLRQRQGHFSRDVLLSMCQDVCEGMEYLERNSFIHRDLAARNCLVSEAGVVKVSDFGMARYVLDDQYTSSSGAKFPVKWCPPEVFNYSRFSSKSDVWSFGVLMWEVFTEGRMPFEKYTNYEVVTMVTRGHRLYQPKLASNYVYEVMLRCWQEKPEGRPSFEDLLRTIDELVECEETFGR

[6] = biological target: T3, Cytoplasmic tyrosine-protein kinase BMX (Homo sapiens) (UniProt P51813)
T3 sequence (whole entry): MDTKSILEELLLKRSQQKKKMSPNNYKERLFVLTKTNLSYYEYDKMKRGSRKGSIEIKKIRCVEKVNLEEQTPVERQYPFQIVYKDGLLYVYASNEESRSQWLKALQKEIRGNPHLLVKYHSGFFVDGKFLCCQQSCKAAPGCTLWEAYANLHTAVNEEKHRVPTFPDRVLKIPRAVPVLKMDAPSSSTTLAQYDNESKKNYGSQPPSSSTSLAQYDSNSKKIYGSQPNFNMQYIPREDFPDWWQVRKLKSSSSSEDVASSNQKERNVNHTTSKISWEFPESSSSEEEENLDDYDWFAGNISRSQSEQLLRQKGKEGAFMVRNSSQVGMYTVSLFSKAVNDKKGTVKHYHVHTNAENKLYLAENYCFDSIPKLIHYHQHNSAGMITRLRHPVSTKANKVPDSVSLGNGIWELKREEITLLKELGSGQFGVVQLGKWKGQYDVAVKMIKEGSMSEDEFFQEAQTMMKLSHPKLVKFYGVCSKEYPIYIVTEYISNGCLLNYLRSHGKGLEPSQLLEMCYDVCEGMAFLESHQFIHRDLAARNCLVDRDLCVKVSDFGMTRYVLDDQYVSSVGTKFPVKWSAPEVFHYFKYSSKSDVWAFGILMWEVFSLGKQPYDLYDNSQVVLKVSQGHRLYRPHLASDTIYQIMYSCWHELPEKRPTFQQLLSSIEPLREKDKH

[7] = biological target: Cyclin-dependent kinase 4 (Homo sapiens) (UniProt P11802)
Sequence of Cyclin-dependent kinase 4 (Homo sapiens) (P11802 whole entry): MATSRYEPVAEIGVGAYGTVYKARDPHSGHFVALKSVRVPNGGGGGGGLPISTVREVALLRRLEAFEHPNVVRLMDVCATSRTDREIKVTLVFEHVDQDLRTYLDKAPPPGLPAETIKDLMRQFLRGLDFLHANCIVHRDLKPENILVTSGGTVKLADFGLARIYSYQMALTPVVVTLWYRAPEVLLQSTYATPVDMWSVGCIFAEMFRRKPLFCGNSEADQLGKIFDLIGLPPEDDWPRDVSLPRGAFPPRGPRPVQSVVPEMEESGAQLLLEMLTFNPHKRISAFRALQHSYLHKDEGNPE

[8] = biological target: T4, Inhibitor of nuclear factor kappa-B kinase subunit epsilon (Homo sapiens) (UniProt Q14164)
T4 sequence (whole entry): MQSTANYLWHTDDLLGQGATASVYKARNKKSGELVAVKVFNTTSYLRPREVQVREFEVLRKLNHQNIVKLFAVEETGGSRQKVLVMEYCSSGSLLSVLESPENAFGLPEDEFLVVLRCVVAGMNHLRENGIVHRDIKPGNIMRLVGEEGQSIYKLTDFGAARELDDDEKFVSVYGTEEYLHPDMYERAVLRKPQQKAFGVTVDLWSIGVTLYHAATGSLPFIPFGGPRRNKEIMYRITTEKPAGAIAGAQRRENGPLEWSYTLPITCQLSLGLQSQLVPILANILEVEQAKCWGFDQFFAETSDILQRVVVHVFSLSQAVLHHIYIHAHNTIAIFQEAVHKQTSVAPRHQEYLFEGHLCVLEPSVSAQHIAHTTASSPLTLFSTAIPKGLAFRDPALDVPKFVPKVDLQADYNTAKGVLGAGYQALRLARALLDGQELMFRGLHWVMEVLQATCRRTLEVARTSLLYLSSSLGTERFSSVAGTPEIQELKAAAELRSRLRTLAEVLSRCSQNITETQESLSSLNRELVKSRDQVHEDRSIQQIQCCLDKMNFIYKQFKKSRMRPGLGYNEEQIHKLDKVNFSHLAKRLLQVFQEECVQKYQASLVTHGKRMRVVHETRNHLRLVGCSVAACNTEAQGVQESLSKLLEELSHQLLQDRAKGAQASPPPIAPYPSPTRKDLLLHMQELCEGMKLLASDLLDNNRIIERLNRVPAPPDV

[9] = Compound concentration 1000.0 nM
[10] = Compound concentration 100.0 nM

Measured: residual activity

Sequence of Bone morphogenetic protein receptor type-2 (Homo sapiens) (Q13873 whole entry): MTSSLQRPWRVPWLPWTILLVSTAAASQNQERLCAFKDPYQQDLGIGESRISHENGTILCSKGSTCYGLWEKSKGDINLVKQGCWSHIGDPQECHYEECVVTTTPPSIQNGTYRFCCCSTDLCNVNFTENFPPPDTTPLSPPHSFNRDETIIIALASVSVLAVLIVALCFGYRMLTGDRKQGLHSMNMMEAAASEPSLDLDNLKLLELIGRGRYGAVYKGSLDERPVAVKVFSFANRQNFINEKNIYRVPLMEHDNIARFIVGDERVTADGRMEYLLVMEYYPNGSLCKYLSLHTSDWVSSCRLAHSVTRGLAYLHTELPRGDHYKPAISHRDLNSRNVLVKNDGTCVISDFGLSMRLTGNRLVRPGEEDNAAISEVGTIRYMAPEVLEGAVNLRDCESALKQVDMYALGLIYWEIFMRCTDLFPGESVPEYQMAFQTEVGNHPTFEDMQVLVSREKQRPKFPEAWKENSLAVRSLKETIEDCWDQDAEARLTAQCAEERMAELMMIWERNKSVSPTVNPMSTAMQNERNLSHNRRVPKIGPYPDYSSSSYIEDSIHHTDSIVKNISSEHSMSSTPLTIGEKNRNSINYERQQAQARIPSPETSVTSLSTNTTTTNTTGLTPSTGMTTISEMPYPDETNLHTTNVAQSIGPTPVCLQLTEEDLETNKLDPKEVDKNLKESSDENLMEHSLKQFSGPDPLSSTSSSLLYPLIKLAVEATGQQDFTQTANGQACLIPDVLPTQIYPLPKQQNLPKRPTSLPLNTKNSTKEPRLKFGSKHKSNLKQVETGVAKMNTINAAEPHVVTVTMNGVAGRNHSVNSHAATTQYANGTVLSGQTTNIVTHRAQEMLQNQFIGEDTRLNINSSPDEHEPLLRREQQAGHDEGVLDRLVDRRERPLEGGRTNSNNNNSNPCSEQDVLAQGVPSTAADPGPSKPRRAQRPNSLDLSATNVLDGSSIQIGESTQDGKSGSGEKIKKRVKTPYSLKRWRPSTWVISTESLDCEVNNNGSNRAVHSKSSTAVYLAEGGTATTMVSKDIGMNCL

C[C@@H]1CN(c2cc(-c3nn(C)c4ccc(OC5(C)CC5)cc34)ncn2)C[C@H](C)O1 [MLi-2-NC]
inactive: [1]; [9] 54% | [2]; [9] 75% | [3]; [9] 78% | [4]; [9] 88% | [5]; [9] 100% | [6]; [9] 93% | [7]; [9] 71% | [8]; [9] 65%

C[C@@H]1CN(c2cc(-c3n[nH]c4ccc(OC5(C)CC5)cc34)ncn2)C[C@H](C)O1 [MLi-2]
inactive: [1]; [10] 75% | [2]; [10] 76% | [3]; [10] 92% | [4]; [10] 79% | [5]; [10] 74% | [6]; [10] 80% | [7]; [10] 97% | [8]; [10] 74%
